The text below walks through data of patent US20160038651A1, “COMPOUNDS AND COMPOSITIONS FOR DRUG RELEASE” (INTERFACE BIOLOGICS, INC., priority 2013, published 2016).

In brackets after ≈: the same amount, converted by molar mass. Like-named read-outs stand apart in the source and are kept apart here.

Data set [1] relates to mice. Put plainly: Acute Systemic Toxicity following ISO 10993-11. To be noted: single injection 50 mL/kg per mouse, observed to 72 h. It is filed as in vivo. As for the experimental part:
A single injection dose of 50 mL/kg per mouse (˜1 mL) was administered to 5 mice per test sample.

Data set [2] is described as follows: Drug release in solution (PBS pH 7.4, 37° C., RP-HPLC). Type of data set: physicochemical. The conditions noted are these: 0.1 mg/ml in PBS pH 7.4, 37° C. As for the experimental part: Compound 2 was dissolved in PBS (pH 7.4) at 0.1 mg/ml and placed in incubator at 37° C. At each time point (0, 1, 3, 7, 14, 21, & 28 days), solution was removed from incubator and analyzed for the drug by RP-HPLC using established protocols (FIG. 6). […] The release profile of compound 2 was also evaluated in a device prototype assembly using bovine serum, blood (porcine) or a gel matrix.
Compound 3 was dissolved in PBS (pH 7.4) at 0.1 mg/ml and placed in incubator at 37° C. At each time point (0, 1, 3, 7, 14, 21, & 28 days), solution was removed from incubator and analyzed for drug by RP-HPLC using established protocols.

In data set [3] the test system is New Zealand rabbits. Put plainly: Intracutaneous Reactivity, ISO 10993-10: 2010. It is filed as in vivo. The conditions noted are these: 0.2 mL intracutaneous injections, scored after 24, 48, 72 h. As for the experimental part: (§1) Compound 2 was dissolved in PBS (9.2×10 mg/mL) and tested for Intracutaneous Reactivity in accordance with ISO 10993-10: 2010 Standard, Biological Evaluation of Medical Devices, Part 10: Tests for Irritation and Skin Sensitization, Pages 11-14. Each rabbit received five sequential 0.2 mL intracutaneous injections along either side of the dorsal mid-line with the test article on one side and the control on the other. Three New Zealand rabbits were used per sample and control. The injection sites were observed and scored for erythema (redness) and edema (swelling) after 24, 48, and 72 h on a scale of 1 to 4.
as §1, with “Compound 3” for “Compound 2”, “PBS (5.4×10^−2” for “PBS (9.2×10”

Data set [4] has as its system S. aureus (ATCC 25923). Put plainly: MIC & MBC determination, standard broth microdilution method. Type of data set: cell-based. The conditions noted are these: for antimicrobial activity: broth microdilution, up to the highest concentration tested; for effect of the combination on the activity of CHX-A: tested in combination with CHX-A. The text has this: The antimicrobial efficacy of Compound 2 and drug released from Compound 2 was investigated using a standard broth microdilution method. The minimum inhibitory concentration (MIC) and minimum bactericidal concentration (MBC) were investigated for Compound 2, drug released from Compound 2, triethylene glycol (TEG), Ciprofloxacin hydrochloride (Cipro®HCl), chlorhexidine diacetate (CHX-A), and Compound 2+CHX-A. The MIC is defined as the lowest concentration of an antimicrobial agent that will inhibit visible growth of a microorganism after overnight incubation. The MBC is defined as the lowest concentration of an antimicrobial agent required to kill 99.9% of a microorganism population. This study was carried out using two gram positive bacteria, E. faecalis (ATCC 29212) and S. aureus (ATCC 25923), and two gram negative bacteria, E. coli (ATCC 25922) and P. aeruginosa (ATCC 27853). The test samples were prepared using 2-fold dilutions per well and covered a concentration range at least 2 dilutions above and 2 dilutions below literature MIC values for the microorganisms tested.
The antimicrobial efficacy of Compound 3 and drug released from Compound 3 investigated using a standard broth microdilution method. The MIC and MBC were investigated for Compound 3, drug released from Compound 3, TEG, Cipro®HCl, CHX-A, and Compound 3+CHX-A. This study was carried out using two gram positive bacteria, E. faecalis (ATCC 29212) and S. aureus (ATCC 25923), and two gram negative bacteria, E. coli (ATCC 25922) and P. aeruginosa (ATCC 27853). The test samples were prepared using 2-fold dilutions per well and covered a concentration range at least 2 dilutions above and 2 dilutions below literature MIC values for the microorganisms tested.
On the technique in general: In broth dilution the organism is exposed to a series of concentrations in liquid medium.

Data set [5] concerns S. aureus (ATCC 25923). To be noted: cited from earlier work.
Data set [6] in a line: Accelerated drug release in acidic, basic or neutral conditions (RP-HPLC). To be noted: 37° C. Type of data set: physicochemical. As for the experimental part: Compound 2 was prepared at 10 mg/ml in 0.1 N HCl (final pH ˜4), 0.1 N NaOH (final pH ˜10), and PBS (final pH ˜7). Samples were incubated at 37° C. in acidic, basic, or neutral conditions. At each time point, the drug concentration was quantified by RP-HPLC.

As to `O=C(OCCOCCOCCO)c1cn(C2CC2)c2cc(N3CCNCC3)c(F)cc2c1=O` [Compound 3], the “signs of toxicity (Acute Systemic Toxicity)” value in data set [1] (in PBS 8×10^−4-8×10^−2 mg/mL, all concentrations) is recorded as “no signs of toxicity”. Besides, the “drug concentration with time (drug release)” value in data set [2] (out to at least 28 days) is “linear increase”. For the same compound, the “irritation (erythema and edema, Intracutaneous Reactivity)” value in data set [3] (in PBS 5.4×10^−2 mg/mL) was “non-irritant”. For the same compound, the “MBC Experimental” value in data set [4] (S. aureus, Table 5) is over 55.5 µg/mL. The “MIC Experimental” value in data set [4] (S. aureus, Table 5, in µg/mL) is reported as over 55.5. For the same compound, in data set [4], the antimicrobial activity result is “did not show any antimicrobial activity” and the “effect of the combination on the activity of CHX-A” value is “did not affect the activity of CHX-A”.
A word on the MBC: it is the lowest tested concentration that kills the bacteria rather than only halting them. A word on the MIC: it is the least concentration at which growth counts as inhibited. With `OCCOCCOCCO` [TEG, triethylene glycol], the “MBC Experimental” value in data set [4] (S. aureus, Table 5) is over 100 µg/mL. In data set [4] (S. aureus, Table 5, in µg/mL), the “MIC Experimental” value was over 100. Also, in data set [4] (Staphylococcus aureus, ATCC25923, S. aureus, Table 4, read-out: MBC Experimental), the MBC is over 100 µg/mL. In addition, in data set [4] (Staphylococcus aureus, ATCC25923, S. aureus, Table 4, read-out: MIC Experimental), the MIC was over 100 µg/mL. In addition, the antimicrobial activity entry in data set [4] is “No antimicrobial activity”.
For the compound `CC(=O)O.CC(=O)O.NC(=N\CCCCCC/N=C(N)/N=C(\N)Nc1ccc(Cl)cc1)/N=C(\N)Nc1ccc(Cl)cc1` [CHX-A, chlorhexidine diacetate], the “MBC Literature” value in data set [5] (Table 4) and in data set [5] (Table 5) was 3.9 µg/mL in each case. The “MIC Literature” value in data set [5] (Table 4) and in data set [5] (Table 5) was 0.9 µg/mL each time. For the same compound, the “MBC Experimental” value in data set [4] (S. aureus, Table 4) fell in the range of 1 to 4 µg/mL; in data set [4] (S. aureus, Table 5) it was 1 to 4 µg/mL. Besides, the “MIC Experimental” value in data set [4] (S. aureus, Table 4) amounted to 1 µg/mL; in data set [4] (S. aureus, Table 5, in µg/mL) it was 1.
With Ciprofloxacin hydrochloride [Cipro*HCl], the “MBC Literature” value in data set [5] (Table 4) and in data set [5] (Table 5) was 0.9 µg/mL in each case. Also, the “MIC Literature” value in data set [5] (Table 4) and in data set [5] (Table 5) was 0.5 µg/mL throughout. Besides, the “MBC Experimental” value in data set [4] (S. aureus, Table 4) was in the range of 0.5 to 1 µg/mL; in data set [4] (S. aureus, Table 5), 0.5 to 1 µg/mL. For the same compound, the “MIC Experimental” value was 0.25 to 0.5 µg/mL in data set [4] (S. aureus, Table 4) and 0.25-0.5 in data set [4] (S. aureus, Table 5, in µg/mL).
In data set [6] (10 mg/ml in 0.1 N HCl (final pH ~4), after 7 days), `O=C(OCCOCCOCCOC(=O)c1cn(C2CC2)c2cc(N3CCNCC3)c(F)cc2c1=O)c1cn(C2CC2)c2cc(N3CCNCC3)c(F)cc2c1=O` [Compound 2] yielded a drug release of about 71%. The same compound returned a drug release in data set [6] (10 mg/ml in 0.1 N NaOH (final pH ~10), in less than 1 day) of 100%. The drug release in data set [6] (10 mg/ml in PBS (final pH ~7), after 7 days) is recorded as about 2%. Moreover, the “signs of toxicity (Acute Systemic Toxicity)” value in data set [1] (in PBS 4×10^−5-9.7×10^−1 mg/mL, higher dosage) was “no signs of toxicity”. Further, the total drug released in data set [2] (after 28 days) is recorded as about 8%. In addition, in data set [3] (in PBS 9.2×10 mg/mL), the “irritation (erythema and edema, Intracutaneous Reactivity)” value is “non-irritant”. In addition, in data set [4] (S. aureus, Table 4), the “MBC Experimental” value was over 78 µg/mL and the “MIC Experimental” value is over 78 µg/mL. In addition, in data set [4], the antimicrobial activity result is recorded as “did not show any antimicrobial activity” and the “effect of the combination on the activity of CHX-A” value is listed as “did not affect the activity of CHX-A”.
As to `O=C(O)c1cn(C2CC2)c2cc(N3CCNCC3)c(F)cc2c1=O` [Cipro Released from Compound 3], the “MBC Experimental” value in data set [4] (S. aureus, Table 5) was found to be 1 µg/mL (≈ 3.02 µM). Also, the “MIC Experimental” value in data set [4] (S. aureus, Table 5, in µg/mL) is reported as 0.5. In data set [4], the antimicrobial activity entry is “antimicrobial activity consistent with both the Cipro®HCl controls and literature values”.
